Assay results reported in paper PMC11078216, “Discovery of potent and selective activity-based probes (ABPs) for the deubiquitinating enzyme USP30” (RSC Chemical Biology, 2024).

Biological target: T1, USP30 (Homo sapiens, UniProt Q70CQ3)
T1 construct: We next determined cellular engagement of endogenous USP30 with IMP-2587 or IMP-2586; endogenous in cells; host or cells: HEK293T
T1 sequence (Q70CQ3 1-517): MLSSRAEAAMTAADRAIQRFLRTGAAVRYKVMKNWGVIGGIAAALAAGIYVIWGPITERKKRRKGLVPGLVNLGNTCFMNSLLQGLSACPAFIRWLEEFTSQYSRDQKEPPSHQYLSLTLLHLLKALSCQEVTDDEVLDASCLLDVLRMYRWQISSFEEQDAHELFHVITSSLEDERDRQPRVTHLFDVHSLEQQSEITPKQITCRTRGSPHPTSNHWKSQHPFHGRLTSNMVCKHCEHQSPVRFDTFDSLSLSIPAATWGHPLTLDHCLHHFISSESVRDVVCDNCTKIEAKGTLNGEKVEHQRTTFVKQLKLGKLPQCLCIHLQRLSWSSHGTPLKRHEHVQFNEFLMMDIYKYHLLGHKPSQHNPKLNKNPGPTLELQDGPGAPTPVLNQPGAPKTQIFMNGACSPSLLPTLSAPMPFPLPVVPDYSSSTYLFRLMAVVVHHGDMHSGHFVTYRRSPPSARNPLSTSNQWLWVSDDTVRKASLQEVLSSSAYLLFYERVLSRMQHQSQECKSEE
Assay: Biotin pulldown (Neutravidin enrichment) and immunoblotting for USP30
Format: cell-based
Conditions: HEK293T, 1 h; for extent of USP30 engagement and enrichment: 100 nM probe, pulldown; for probe concentration at which USP30 was enriched (pulldown) / probe concentration of maximal USP30 enrichment (pulldown): biotin pulldown and immunoblotting
Protocol: We next determined cellular engagement of endogenous USP30 with IMP-2587 or IMP-2586. […] In-cell concentration-dependent competition by IMP-2587 and IMP-2586 for USP30 were confirmed below 100 nM probe (Fig. 2b and c), whilst engagement of an exemplar unrelated DUB, UCHL1, occurred only at a much higher concentration (30 000 nM). We hypothesise that incomplete modification of USP30 by HA-Ub-VME is likely due to limited retention of USP30 activity in cell lysates, which have likely had the USP30 transmembrane domain compromised, highlighting the potential utility of a small molecule USP30 ABP applicable directly in intact cells. Direct USP30 target engagement by IMP-2587 and IMP-2586 was confirmed in HEK293T cells following 1 h probe treatment followed by cell lysis and CuAAC bio-orthogonal ligation to capture reagent azido-TAMRA-biotin (AzTB) for IMP-2587 or alkyne-TAMRA-biotin for IMP-2586 (Fig. 3a).[27] […] This unspecific background labelling is presumably due to the previously reported higher off-target CuAAC reactivity of an alkyne-bearing capture reagent, applied here due to incorporation of an azide tag in IMP-2586.[28] Moreover, the labelling of USP30 was further confirmed by biotin pulldown and immunoblotting. […]
d) Live cell probe incubation, lysate click chemistry and precipitation 6-well HEK293T cells were incubated with media containing compounds ABP 2 and ABP 4 at indicated concentrations for 1 h at 37 °C. The cells were washed with PBS and lysed with lysis buffer (50 μL (1% (v/v) Triton X-100, 0.1% (w/v) sodium dodecyl sulfate (SDS), EDTA-free complete protease inhibitor cocktail (1×, Roche) in PBS on ice for 10 min. The lysates were scraped and transferred to corresponding Lo-Bind Eppendorfs. Each lysate was sonicated for 1 minute, and the samples centrifuges at 5,000 x g at 4 °C for 5 minutes to pellet insoluble cellular debris. The supernatant was collected, and protein concentration was determined using the DC Protein Assay (Bio-Rad) as per manufacturer’s instructions, and normalised to lowest concentrated sample (e.g. 1 mg/mL, using lysis buffer). The following “click mixture” was prepared separately, preparing 6 μL for every 100 μL of […]
Capture reagent (AzRB/AzT for ABP 2, YnT/YnB for ABP 4 10 mM in DMSO, 1 vol; final concentration […]
CuSO4 (50 mM in water, 2 vol; final concentration in reaction 1 mM)
TCEP (50 mM in water, 2 vol; final concentration in reaction 1 mM)
TBTA (10 mM in DMSO, 1 vol; final concentration in reaction 100 µM)
The click mixture was vortexed and incubated at room temperature for 2 min before 6 μL of the mixture was added to every 100 μL of lysate. The reaction mixtures were shaken at room temperature for 1 h before being quenched with EDTA (500 mM in H2O) to a final concentration of 10 mM.
Proteins were precipitated by adding H2O (1 vol), MeOH (2 vol) and CHCl3 (0.5 vol), vortexing briefly then centrifuging at 17,000 × g for 5 min. The top H2O/MeOH layer was discarded and the middle layer of protein pellet and lower CHCl3 layer retained. The suspension was washed with MeOH (300 μL), and sonicated to break up the pellet. The proteins were pelleted by centrifugation at 10,000–17000 × g for 5–10 min or until a compact pellet was formed. The protein pellet was washed once more with MeOH (1 mL). The pellet was resuspended by sonicating and completely dissolving in 1% (w/v) SDS in PBS (to 5 mg/mL protein) before being made up to 1 mg/mL protein with PBS.
The lysate samples (10-20 μg) were mixed with 4× Laemmli sample loading buffer (250 mM Tris -HCl pH 6.8, 30% (v/v) glycerol, 10% (w/v) SDS, 0.05% (w/v) bromophenol blue) supplemented with 20% v/v β-mercaptoethanol (BME) and boiled for 10 min at 95 °C. The resulting protein samples were separated according to the protocol in section 3.2.c. Gel were imaged on a Typhoon imager (GE Healthcare; λEx 532 nm, λEm 575 nm for TAMRA. For protein loading quantification, gels were stained with Coomassie blue staining solution overnight, rinsed with water and imaged on an ImageQuant™ […]

Structure (SMILES) | extent of USP30 engagement and enrichment | probe concentration at which USP30 was enriched (pulldown) | probe concentration of maximal USP30 enrichment (pulldown)
N#CN1CC[C@@H](NC(=O)c2cc(-c3ccccc3Oc3ccc(N=[N+]=[N-])cc3)n[nH]2)C1 [IMP-2586] | almost complete engagement and enrichment | 10 nM | 100 nM
C#Cc1cccc(-c2cc(NC(=O)CC3CCN(C#N)C3)on2)c1 (stereo not drawn) [IMP-2587] | almost complete engagement and enrichment | 10 nM | 100 nM
